Test results reported in PMC10263210, “Design, Synthesis and Biological Evaluation of Novel MDH Inhibitors Targeting Tumor Microenvironment” (Pharmaceuticals, 2023).

Legend:
HIF-1α = assay: Western blot of HIF-1α and its target genes under hypoxia; assay type: cell-based, human; details: A549 cells, hypoxia
Description: Previously, it has been reported that the inhibition of MDH1 or MDH2 enzymes is related to HIF-1a expression levels. We investigated whether compound 50 decreases HIF-1α accumulation in A549 cells (Figure 6). […] Additionally, we confirmed that compound 50 suppressed the protein expression of HIF-1α target genes, such as GLUT1 and PDK1 (Figure 6), as clearly shown by the Western blot assay.
(§1) Human lung carcinoma A549 cells were cultured in Dulbecco’s modified Eagle’s medium and H460 cells were cultured in RPMI 1640 medium containing 10% fetal bovine serum and 1% penicillin/streptomycin at 37 °C with a 5% Co2 hypoxia experimental condition. The cells were grown in the hypoxia chamber (1% O2, 94% N2, and 5% Co2 in a multigas incubator)
(§2) The cells were lysed with RIPA buffer (Millipore, Billerica, MA, USA) containing a protease inhibitor cocktail (Roche, Basel, Switzerland) for 15 min at 4 °C and centrifuged at 12,000 rpm for 10 min. The lysates were quantified using a protein assay kit (Bio-Rad, Hercules, CA, USA). The lysates were subjected to an SDS-PAGE analysis and transferred to PVDF membranes (Millipore, Billerica, MA, USA). The proteins were identified using the appropriate antibodies: HIF-1α (BD Transduction Laboratories, San Diego, CA, USA), pyruvate dehydrogenase kinase 1 (PDK1) (Cell Signaling, Danvers, MA, USA), GLUT1 and β-action (Santa Cruz Biotechnology, Danvers, MA, USA), and CD73 (Proteintech, Rosemont, IL, USA).

CD73 [1] = assay: Western blot of CD73 expression under hypoxia; assay type: cell-based, human; details: A549 cells
Description: (§3) It has been reported that CD73 expression is induced by HIF-1α under hypoxic conditions. Therefore, we examined whether the expression of CD73 is inhibited by compound 50 under hypoxia in A549 lung cancer cells. […] To confirm the effect of compound 50 on CD73 expression, we performed ELISA for CD73.
as §1, §2

CD73 [2] = assay: CD73 ELISA; assay type: cell-based, human; details: A549 cells; for CD73 level (%): hypoxic conditions, 0 μM = 100
Description: as §3
The prepared samples were incubated with the same amount of antibody cocktail for 1 h at room temperature and then washed three times with PT buffer. After washing, the plates were developed by adding 100 µL of TMB development solution, and the reaction was stopped by adding 100 µL of stop solution. The amount of CD73 was quantitatively measured according to the instructions on the Human CD73 Simplestep ELISA kit (Abcam, Cambridge, UK).

**Q.** For `CC(C)(C)CC(C)(C)c1ccc(N2CCC(C(=O)Nc3cccc(OC(F)(F)F)c3)CC2)cc1` [Compound 50, N-(3-(Trifluoromethoxy)phenyl)-1-(4-(2,4,4-trimethylpentan-2-yl)phenyl)piperidine-4-carboxamide], which HIF-1α accumulation (HIF-1α) is on record?
**A.** decreased HIF-1α accumulation in a dose-dependent manner

**Q.** And the “protein expression of HIF-1α target genes GLUT1 and PDK1” value (HIF-1α; Western blot)?
**A.** suppressed

**Q.** What about the “CD73 expression increased by HIF-1α” value (CD73 [1]) of the same molecule?
**A.** significantly decreased

**Q.** And the CD73 levels (CD73 [2]; ELISA)?
**A.** reduced CD73 levels in A549 cells in a dose-dependent manner

**Q.** And the “CD73 level (%)” value (CD73 [2]; 2.5 μM)?
**A.** 90%

**Q.** What about the “CD73 level (%)” value (CD73 [2]; 5.0 μM) of the same molecule?
**A.** 84%

**Q.** And the “CD73 level (%)” value (CD73 [2]; 10 μM)?
**A.** 68%

**Q.** What about the melting point of the same molecule?
**A.** 139 to 140 °C
